According to ChEMBL document CHEMBL4400537, “Virtual Screening Identifies Irreversible FMS-like Tyrosine Kinase 3 Inhibitors with Activity toward Resistance-Conferring Mutations” (J Med Chem, 2019):
Blank lines part the entries; values can stand above or below the molecule they belong to. Activity calls are given as the source filed them. No cut-off for these calls is given here.

Key:
[1] = Toxicity in zebrafish embryo assessed as mortality at 10 uM measured 120 hpf by fluorescence microscopy; set-up: species or system Danio rerio; settings: in vivo
[2] = target: Glycogen synthase kinase-3 alpha (Homo sapiens) (UniProt P49840); experiment: Inhibition of human N-terminal His-tagged GSK3alpha expressed in baculovirus expression system at 1 uM relative to control
Sequence of Glycogen synthase kinase-3 alpha (Homo sapiens) (P49840 2-483 limits assumed): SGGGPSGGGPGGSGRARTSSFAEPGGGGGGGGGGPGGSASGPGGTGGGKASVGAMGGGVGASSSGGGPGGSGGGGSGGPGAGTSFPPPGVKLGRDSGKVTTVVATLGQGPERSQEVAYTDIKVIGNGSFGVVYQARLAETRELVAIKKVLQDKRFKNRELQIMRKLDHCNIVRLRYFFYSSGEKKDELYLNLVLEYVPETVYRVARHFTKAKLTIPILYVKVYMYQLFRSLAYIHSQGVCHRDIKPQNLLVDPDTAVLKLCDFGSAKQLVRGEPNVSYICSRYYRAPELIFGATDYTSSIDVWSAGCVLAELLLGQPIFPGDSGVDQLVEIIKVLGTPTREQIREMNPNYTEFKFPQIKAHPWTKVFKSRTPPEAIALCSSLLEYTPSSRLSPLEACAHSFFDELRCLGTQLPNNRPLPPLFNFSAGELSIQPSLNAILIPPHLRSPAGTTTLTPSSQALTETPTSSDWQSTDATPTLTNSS

[3] = target: Glycogen synthase kinase-3 beta (Homo sapiens) (UniProt P49841); experiment: Inhibition of human N-terminal His-tagged GSK3beta expressed in baculovirus expression system at 1 uM relative to control
Sequence of Glycogen synthase kinase-3 beta (Homo sapiens) (P49841 whole entry, looked up): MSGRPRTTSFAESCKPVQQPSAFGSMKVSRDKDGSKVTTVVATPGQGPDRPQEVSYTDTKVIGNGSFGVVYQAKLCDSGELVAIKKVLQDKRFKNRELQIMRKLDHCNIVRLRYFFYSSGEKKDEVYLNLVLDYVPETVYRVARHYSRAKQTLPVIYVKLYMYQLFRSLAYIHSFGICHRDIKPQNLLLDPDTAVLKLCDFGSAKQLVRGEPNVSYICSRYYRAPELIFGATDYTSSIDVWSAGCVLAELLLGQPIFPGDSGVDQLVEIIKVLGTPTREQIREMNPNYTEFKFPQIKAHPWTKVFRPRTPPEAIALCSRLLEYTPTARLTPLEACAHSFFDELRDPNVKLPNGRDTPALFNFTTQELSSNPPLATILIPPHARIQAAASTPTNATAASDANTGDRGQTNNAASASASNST

MV4-11 [4] = experiment: cells; settings: Homo sapiens, MV4-11, 72 h
physchem = settings: potassium phosphate buffer with reduced glutathione
MV4-11 [5] = experiment: Cytotoxicity in human MV4-11 cells assessed as inhibition of cellular viability at 0.5 to 5000 nM incubated for 2 to 8 hrs followed by compound washout by CellTiter-Glo luminescent assay; assay type: functional, cell-based
THP-1 = experiment: cells; settings: Homo sapiens, THP-1, 72 h
Jurkat = experiment: cells; settings: Homo sapiens, 72 h
[6] = tested on: T1, Receptor-type tyrosine-protein kinase FLT3 (Homo sapiens), P36888 [D835Y]; experiment: Irreversible inhibition of recombinant human FLT3 D835Y mutant (571 to 993 residues) expressed in baculovirus expression system at 1 uM preincubated for 5 to 30 mins followed by myelobasic protein addition measured after 120 mins using BODIPY-tagged compounds in presence of ATP by ADP-Glo assay relative to control
T1 sequence (whole entry): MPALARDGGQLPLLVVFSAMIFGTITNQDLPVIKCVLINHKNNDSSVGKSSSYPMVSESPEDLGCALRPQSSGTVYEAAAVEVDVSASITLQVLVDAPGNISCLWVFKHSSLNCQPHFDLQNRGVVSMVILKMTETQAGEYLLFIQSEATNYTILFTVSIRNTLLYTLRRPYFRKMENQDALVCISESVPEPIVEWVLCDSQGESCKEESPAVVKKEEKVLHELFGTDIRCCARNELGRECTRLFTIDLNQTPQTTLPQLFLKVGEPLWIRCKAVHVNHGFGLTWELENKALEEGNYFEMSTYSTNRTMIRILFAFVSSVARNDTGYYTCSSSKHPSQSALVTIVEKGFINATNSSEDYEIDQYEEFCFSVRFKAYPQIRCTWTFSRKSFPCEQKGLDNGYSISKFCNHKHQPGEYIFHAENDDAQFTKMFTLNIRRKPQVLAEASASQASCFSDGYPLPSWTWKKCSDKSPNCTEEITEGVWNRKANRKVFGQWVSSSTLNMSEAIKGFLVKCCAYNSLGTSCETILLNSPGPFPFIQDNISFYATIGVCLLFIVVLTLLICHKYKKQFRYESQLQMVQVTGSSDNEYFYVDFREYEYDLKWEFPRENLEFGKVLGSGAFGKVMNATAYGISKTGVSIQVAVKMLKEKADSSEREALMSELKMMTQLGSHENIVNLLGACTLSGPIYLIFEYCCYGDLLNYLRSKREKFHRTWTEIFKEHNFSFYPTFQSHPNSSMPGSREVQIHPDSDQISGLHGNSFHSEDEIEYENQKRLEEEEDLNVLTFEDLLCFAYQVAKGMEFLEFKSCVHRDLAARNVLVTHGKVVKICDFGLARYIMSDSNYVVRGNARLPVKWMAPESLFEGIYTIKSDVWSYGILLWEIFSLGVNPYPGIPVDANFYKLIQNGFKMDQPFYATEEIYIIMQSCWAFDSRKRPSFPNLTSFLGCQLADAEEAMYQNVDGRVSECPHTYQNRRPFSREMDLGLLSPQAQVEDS

[7] = tested on: T1, Receptor-type tyrosine-protein kinase FLT3 (Homo sapiens), P36888 [D835Y]; experiment: Covalent binding affinity to recombinant human FLT3 D835Y mutant (571 to 993 residues) expressed in baculovirus expression system at 50 uM by Western blot analysis
[8] = tested on: T1, Receptor-type tyrosine-protein kinase FLT3 (Homo sapiens), P36888 [D835Y]; experiment: Covalent binding affinity to recombinant human FLT3 D835Y mutant (571 to 993 residues) expressed in baculovirus expression system at 100 uM by Western blot analysis
[9] = Drug uptake in zebrafish embryo gastrointestine at 10 uM starting 1 dpf and measured at 4 dpf by fluorescence microscopy; assay type: ADME, Danio rerio, Gastrointestinal tract; settings: in vivo
MOLM-14 = experiment: cells; settings: Homo sapiens, MOLM-14, 72 h
[10] = tested on: T1, Receptor-type tyrosine-protein kinase FLT3 (Homo sapiens), P36888 [D835Y]; experiment: Inhibition of covalent binding of (Z)-N-(2-(2-(4-(2,8-Diethyl-5,5-difluoro-1,3,7,9-tetramethyl-5H-4lambda4,5lambda4-dipyrrolo[1,2-c:2',1'-f ][1,3,2]diazaborinin-10-yl)phenoxy)-acetamido)ethyl)-2,4-dimethyl-5-((2-oxo-5-(vinylsulfon-amido)-indolin-3-ylidene)methyl)-1H-pyrrole-3-carboxamide to recombinant human FLT3 D835Y mutant (571 to 993 residues) expressed in baculovirus expression system at […] by Western blot analysis

SMILES: c1ccc(Nc2nccc(Nc3cc(C4CC4)[nH]n3)n2)cc1
Activity [1]: Toxic | inhibition [2]: 74% | inhibition [3]: 76% | IC50 (MV4-11 [4]): 230 nM

SMILES: O=C(CF)Nc1ccc2c(c1)/C(=C/c1ccc[nH]1)C(=O)N2
Activity [1]: Toxic | IC50 (MV4-11 [4]): 845 nM | half-life at 10 µM (physchem): > 1440 min

IC50 (MV4-11 [4]): 72 nM
SMILES: O=C(CCl)Nc1ccc2c(c1)/C(=C/c1ccc[nH]1)C(=O)N2

SMILES: CC1(COc2ccc3c(c2)ncn3-c2ccc3cccc(N4CCC(N)CC4)c3n2)COC1 [CRENOLANIB]
Activity [1]: Toxic | Activity (MV4-11 [5]): Active | IC50 (MV4-11 [4]): 12 nM | IC50 (THP-1): > 1000 nM | IC50 (Jurkat): > 1000 nM

SMILES: CCC1=C(C)C2=C(c3ccc(OCC(=O)NCCNC(=O)c4c(C)[nH]c(/C=C5\C(=O)Nc6ccc(NC(=O)C(F)(F)F)cc65)c4C)cc3)c3c(C)c(CC)c(C)n3[B-](F)(F)[N+]2=C1C
inhibition [6]: 34% | inhibition [7]: 7% | Activity [8]: 18%

IC50 (MV4-11 [4]): > 1 nM
SMILES: CCC(=O)Nc1cccc(Nc2nccc(Nc3cc(C4CC4)[nH]n3)n2)c1

IC50 (MV4-11 [4]): 643 nM
SMILES: CCN(CC)CCNC(=O)c1c(C)[nH]c(/C=C2\C(=O)Nc3ccc(NS(=O)(=O)CC)cc32)c1C

SMILES: COc1cc(O)c2c(c1)[C@H]1O[C@@H]1C[C@H](O)[C@H](O)C(=O)/C=C\C[C@H](C)OC2=O [HYPOTHEMYCIN]
Activity [1]: Toxic | IC50 (MV4-11 [4]): 15 nM | IC50 (THP-1): > 1000 nM | IC50 (Jurkat): > 1000 nM

IC50 (MV4-11 [4]): 489 nM
SMILES: CCS(=O)(=O)Nc1cccc(Nc2nccc(Nc3cc(C4CC4)[nH]n3)n2)c1

IC50 (MV4-11 [4]): > 1 nM
SMILES: O=C1Nc2ccccc2/C1=C/c1ccccc1

IC50 (MV4-11 [4]): > 1 nM
SMILES: CCC(=O)Nc1ccc2c(c1)/C(=C/c1ccc[nH]1)C(=O)N2

SMILES: CC1=CC(C)=[N+]2C1=Cc1ccc(CCC(=O)NCCNC(=O)c3c(C)[nH]c(/C=C4\C(=O)Nc5ccc(NC(=O)CCl)cc54)c3C)n1[B-]2(F)F
inhibition [6]: 55% | Activity [7]: Active | Drug uptake [9]: Active

IC50 (MV4-11 [4]): 58 nM | IC50 (THP-1): 514 nM | IC50 (Jurkat): 298 nM
SMILES: C=CS(=O)(=O)Nc1ccc(Nc2nccc(Nc3cc(C4CC4)[nH]n3)n2)cc1

SMILES: CCN(CC)CCNC(=O)c1c(C)[nH]c(/C=C2\C(=O)Nc3ccc(NC(=O)CCl)cc32)c1C
Activity [1]: Non-Toxic | IC50 (MV4-11 [4]): 21 nM | IC50 (THP-1): > 1000 nM | IC50 (Jurkat): > 1000 nM | IC50 (MOLM-14): 26.4 nM | half-life at 10 µM (physchem): 218 min

IC50 (MV4-11 [4]): 521 nM
SMILES: C=CC(=O)Nc1ccc(Nc2nccc(Nc3cc(C4CC4)[nH]n3)n2)cc1

IC50 (MV4-11 [4]): > 1 nM
SMILES: c1ccc(-c2cnc3ccccn23)cc1

IC50 (MV4-11 [4]): > 1 nM
SMILES: CCS(=O)(=O)Nc1ccc2c(c1)/C(=C/c1ccc[nH]1)C(=O)N2

IC50 (MV4-11 [4]): > 1 nM
SMILES: CCC(=O)Nc1ccc(Nc2nccc(Nc3cc(C4CC4)[nH]n3)n2)cc1

IC50 (MV4-11 [4]): > 1 nM
SMILES: CC(=O)Nc1ccc(Nc2nccc(Nc3cc(C4CC4)[nH]n3)n2)cc1

IC50 (MV4-11 [4]): 175 nM
SMILES: O=C(CCl)Nc1cccc(Nc2nccc(Nc3cc(C4CC4)[nH]n3)n2)c1

IC50 (MV4-11 [4]): > 1 nM
SMILES: C#CC(=O)Nc1ccc(Nc2nccc(Nc3cc(C4CC4)[nH]n3)n2)cc1

IC50 (MV4-11 [4]): > 1 nM
SMILES: CC(=O)Nc1cccc(Nc2nccc(Nc3cc(C4CC4)[nH]n3)n2)c1

SMILES: O=C(O)Cc1c[nH]c2ccccc12
inhibition [10]: Active

IC50 (MV4-11 [4]): > 1 nM
SMILES: C=CC(=O)Nc1ccc2c(c1)/C(=C/c1ccc[nH]1)C(=O)N2

IC50 (MV4-11 [4]): > 1 nM
SMILES: c1ccc(-c2cnc3[nH]cc(-c4ccccc4)c3c2)cc1

IC50 (MV4-11 [4]): 141 nM
SMILES: O=C(CCl)Nc1ccc(Nc2nccc(Nc3cc(C4CC4)[nH]n3)n2)cc1

SMILES: CC(=O)Nc1ccc2c(c1)/C(=C/c1[nH]c(C)c(C(=O)NCCNC(=O)CCc3ccc4n3[B-](F)(F)[N+]3=C(C)C=C(C)C3=C4)c1C)C(=O)N2
inhibition [6]: 23% | Activity [7]: inactive | Activity [8]: inactive

IC50 (MV4-11 [4]): 709 nM
SMILES: C#CC(=O)Nc1ccc2c(c1)/C(=C/c1ccc[nH]1)C(=O)N2

IC50 (MV4-11 [4]): > 1000 nM
SMILES: CCN(CC)CCNC(=O)c1c(C)[nH]c(/C=C2\C(=O)Nc3ccc(NC(C)=O)cc32)c1C

IC50 (MV4-11 [4]): > 1 nM
SMILES: C#CC(=O)Nc1cccc(Nc2nccc(Nc3cc(C4CC4)[nH]n3)n2)c1

IC50 (MV4-11 [4]): 67 nM
SMILES: C=CS(=O)(=O)Nc1ccc2c(c1)/C(=C/c1ccc[nH]1)C(=O)N2

IC50 (MV4-11 [4]): 787 nM
SMILES: C=CC(=O)Nc1cccc(Nc2nccc(Nc3cc(C4CC4)[nH]n3)n2)c1

SMILES: C=CS(=O)(=O)Nc1ccc2c(c1)/C(=C/c1[nH]c(C)c(C(=O)NCCNC(=O)COc3ccc(C4=C5C(C)=C(CC)C(C)=[N+]5[B-](F)(F)n5c(C)c(CC)c(C)c54)cc3)c1C)C(=O)N2
inhibition [6]: 89% | Activity [7]: Active | Activity [8]: Active | Drug uptake [9]: Active

SMILES: CC(=O)Nc1ccc2c(c1)/C(=C/c1ccc[nH]1)C(=O)N2
Activity [1]: Non-Toxic | IC50 (MV4-11 [4]): > 1 nM

IC50 (MV4-11 [4]): 129 nM
SMILES: CCS(=O)(=O)Nc1ccc(Nc2nccc(Nc3cc(C4CC4)[nH]n3)n2)cc1

inhibition [2]: 12% | inhibition [3]: -6%
SMILES: O=C1Nc2ccccc2/C1=C/c1ccc[nH]1

SMILES: O=C(CBr)Nc1ccc2c(c1)/C(=C/c1ccc[nH]1)C(=O)N2
Activity [1]: Toxic | IC50 (MV4-11 [4]): 653 nM

IC50 (MV4-11 [4]): 2.3 nM | IC50 (THP-1): 172 nM | IC50 (Jurkat): 44 nM
SMILES: C=CS(=O)(=O)Nc1cccc(Nc2nccc(Nc3cc(C4CC4)[nH]n3)n2)c1
